This is an account of results in EP0526540B1, “USE OF 5-HT4-RECEPTOR ANTAGONISTS IN THE TREATMENT OF ATRIAL FIBRILLATION, INCLUDING THE PREVENTION OF STROKE” (SMITH KLINE & FRENCH LABORATORIES LIMITED, priority 1990, dated 1991).

Each structure is given as a SMILES string.

Test [1] has as its target cardiac 5-HT4 receptors (Sus scrofa, UniProt Q6Q253). Description: Piglet spontaneous beating atria screen (right atrium, positive chronotropic effect, antagonism of 5-HT). The test is classed as cell-based, Porcine. On the procedure:
Method (See A. J. Kaumann, 1990, Naunyn-Schmiedeberg's Arch. Pharmacol 342, 619-622).
Piglets of either sex, 2 to 5 days old, were obtained from local farms. Usually 2 piglets were from the same litter. The piglets were anaesthetised with halothene; their hearts rapidly removed and washed free of blood with warm solution containing (mM):120 Na^+, 5 K^+, 2.25 Ca^2+, 0.5 Mg^2+, 98.5 Cl^-, 0.5 SO4^2-, 34 HCO3^-, 1 HPO4^2-, 0.04 EDTA, deionised and double distilled water in glass, equilibrated with 95% O2 and 5% CO2.
After dissection of the right atrium in warm solution, the tissue was set up in an apparatus with a 50 ml. bath (Blinks, 1965 J. Appl. Physiol. 20, 755-757), containing the solution described above supplemented with (mM):15 Na^+, 5 fumarate, 5 pyruvate, 5 L-glutamate, 10 glucose. Experiments were carried out at 37°C. […] The tissue was attached to a Swema SG4-45 strain gauge transducer by means of a stainless steel wire and force recorded on a Watanabe polygraph. […]
A single cumulative concentration-effect curve was determined by the sequential addition of 5-HT or other agonists to the bath in amounts that increased the total concentration in steps of ½ log unit. […] The time of incubation with an antagonist was at least 1 hr before a concentration-effect curve for an agonist was determined.

The target of test [2] is T1, cardiac 5-HT4 receptors (Homo sapiens, UniProt Q13639).
T1 construct: from tissue; host or cells: human right atrial preparation
T1 sequence (Q13639 whole entry): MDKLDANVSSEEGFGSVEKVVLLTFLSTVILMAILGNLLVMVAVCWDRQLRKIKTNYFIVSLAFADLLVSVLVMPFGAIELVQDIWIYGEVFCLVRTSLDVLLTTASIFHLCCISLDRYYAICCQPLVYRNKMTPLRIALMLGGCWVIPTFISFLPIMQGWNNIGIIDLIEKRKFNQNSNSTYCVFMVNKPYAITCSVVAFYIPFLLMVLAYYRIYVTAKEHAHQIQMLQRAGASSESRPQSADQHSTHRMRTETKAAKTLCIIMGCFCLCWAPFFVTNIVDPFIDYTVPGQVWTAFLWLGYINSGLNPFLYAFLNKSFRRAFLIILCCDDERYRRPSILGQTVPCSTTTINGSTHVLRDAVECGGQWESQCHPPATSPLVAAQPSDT
Briefly: Human right atrial preparations (force), blocking potency of antagonists. It is filed as cell-based. The note with it: Granisetron tested at 20 µM.

Chain of cardiac 5-HT4 receptors (Sus scrofa, UniProt Q6Q253) (Q6Q253 1-402): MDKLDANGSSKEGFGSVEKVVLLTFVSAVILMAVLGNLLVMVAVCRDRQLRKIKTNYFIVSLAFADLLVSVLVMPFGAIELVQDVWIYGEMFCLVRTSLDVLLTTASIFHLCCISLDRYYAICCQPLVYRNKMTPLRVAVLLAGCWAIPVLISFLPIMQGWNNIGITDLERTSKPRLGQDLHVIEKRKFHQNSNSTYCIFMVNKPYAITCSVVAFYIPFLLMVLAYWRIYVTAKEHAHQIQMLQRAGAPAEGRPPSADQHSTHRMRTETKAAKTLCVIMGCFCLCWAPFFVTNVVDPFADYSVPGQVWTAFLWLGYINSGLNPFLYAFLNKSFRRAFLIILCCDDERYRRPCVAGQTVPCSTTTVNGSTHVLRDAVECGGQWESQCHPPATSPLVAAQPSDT

On to `CN1[C@@H]2CC[C@H]1C[C@@H](OC(=O)c1n[nH]c3ccccc13)C2` [(3-α-tropanyl)-1H-indazole-3-carboxylic acid ester], for which, at cardiac 5-HT4 receptors [1] (conclusion from the preliminary screening results of Table 1), the “type of antagonism of cardiac 5-HT4 receptors” value is given as “competitive antagonist”.

On to `CN1C2CCCC1CC(NC(=O)c1nn(C)c3ccccc13)C2` (stereo not drawn) [Granisetron], for which the “pK (-log M equilibrium dissociation constant), blocking potency, Human (force)” value on cardiac 5-HT4 receptors [2] was “ineffective (20 µM)”. Besides, the “pK (-log M equilibrium dissociation constant), blocking potency, Porcine (rate)” value on cardiac 5-HT4 receptors [1] (piglet spontaneously beating right atrium, rate, 37°C, 400 nM (±)-propranolol and 6 µM cocaine present, antagonist incubated at least 1 hr, Granisetron tested at 1 µM, preliminary screening results) is “ineffective (1 µM)”.
